These results are taken from US6022895A, “Substituted amino compounds and their use as substances having an analgesic effect” (priority 1997, dated 2000).

Structures can show the parent of a compound that is named as a salt.

The target in the first assay is T1, δ opiate receptor (Rattus norvegicus, UniProt P33533).
T1 construct: The rat brain, which was freshly prepared in each case, was homogenized; from tissue; host or cells: brain of male Wistar rats, without the cerebellum, pons and medulla oblongata (membrane homogenate)
T1 sequence (P33533 whole entry): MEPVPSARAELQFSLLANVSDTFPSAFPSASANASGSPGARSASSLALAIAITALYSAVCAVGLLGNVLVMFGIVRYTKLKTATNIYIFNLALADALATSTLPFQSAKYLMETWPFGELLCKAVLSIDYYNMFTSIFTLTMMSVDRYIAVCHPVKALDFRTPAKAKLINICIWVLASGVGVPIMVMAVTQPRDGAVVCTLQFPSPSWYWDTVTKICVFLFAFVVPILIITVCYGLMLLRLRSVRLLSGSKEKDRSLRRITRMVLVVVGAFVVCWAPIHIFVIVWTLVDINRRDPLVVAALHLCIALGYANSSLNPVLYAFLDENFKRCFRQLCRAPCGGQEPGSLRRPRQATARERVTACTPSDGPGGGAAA
Description: δ opiate receptor binding (displacement of (3H)-2-D-ala-deltorphin II, rat brain membrane homogenate). Also on record: species or system male Wistar rats. Particulars: mean values ± standard deviations of ≥3 independent tests; 1 nmole/l (3H)-2-D-ala-deltorphin II; pH 7.4; 90 minutes at 37° C.; Ki from IC50 by Cheng-Prussoff equation. The protocol: δ Opiate Receptor Binding Investigations
Tests to determine the affinity of the compounds of formula (I) according to the invention for the δ opiate receptor were performed on meninx homogenates (a homogenate of the brain of male Wistar rats, without the cerebellum, pons and medulla oblongata).
The rat brain, which was freshly prepared in each case, was homogenized for this purpose, while being cooled in ice, in 50 mmoles/l Tris-HCl (pH 7.4) and was centrifuged for 10 minutes at 5000 g and 4° C. After decanting and discarding the supernatant liquor, and taking up and homogenising the membrane sediment again in […] Tris-HCl (pH 7.4), the homogenate was subsequently centrifuged for 20 minutes at 20,000 g and 4° C. This washing step was repeated once more. Thereafter, the supernatant liquor was decanted, the membrane sediment was homogenized in cold 50 mmoles/l Tris-HCl, 20% glycerol (w/v), 0.01% bacitracin (w/v) (pH 7.4), and was frozen in aliquots until testing was performed. For the receptor binding tests, the aliquots were thawed and diluted 1:10 with the binding test buffer.
50 mmoles/l Tris-HCl, 5 mmoles/l MgCl2 (pH 7.4) supplemented with 0.1% (w/v) bovine serum albumin, with 1 nmole/l (^3 H)-2-D-ala-deltorphin II as the radioactive ligand, was used as the buffer in the binding test. The proportion of non-specific binding was determined in the presence of 10 μmoles/l naloxone.
In further batches, the compounds according to the invention were added in a series of concentrations and the displacement of the radioactive ligand from its specific binding was determined. The respective triple batches were incubated for 90 minutes at 37° C. and were subsequently harvested by means of filtration through glass fiber filters (GF/B) for the determination of the radioactive ligand bound to the membrane homogenate. The radioactivity of the glass fiber filter discs was measured in a β-counter after adding a scintillator.
The affinity of the compounds according to the invention for the δ opiate receptor was calculated by the mass action law, by means of non-linear regression, as the IC50 value. Ki values were calculated from the IC50 values using the Cheng-Prussoff equation. The Ki values are given as mean values ± standard deviations of ≥3 tests which were independent of each other.
Turning to `CN(C)CC1=C(c2cccc(O)c2)c2cc(Oc3ccccc3)ccc2CC1` [Example 8, 3-(2-dimethylaminomethyl-7-phenoxy-3,4-dihydro-naphth-1-yl)-phenol hydrochloride], the Ki amounted to 25.7 ± 10.2 nM.

`C=CCN(C)CC1=C(c2cccc(O)c2)c2ccccc2CCC1` [Example 10, 3-{6-[allyl-methyl-amino)-methyl]-8,9-dihydro-7H-benzocyclohepten-5-yl}-phenol hydrochloride] came in with a Ki of 679 ± 214 nM.

Compound `CN(C)CC1=C(c2cccc(O)c2)c2ccccc2C1` [Example 2i, 3-(2-dimethylaminomethyl-3H-inden-1-yl)-phenol hydrochloride] returned a Ki of 157 ± 16 nM.

For the compound `CN(CC1=C(c2cccc(O)c2)c2ccccc2CCC1)Cc1ccccc1` [Example 2e, 3-{6-[(benzyl-methyl-amino)-methyl]-8,9-dihydro-7H-benzocyclohepten-5-yl}-phenol hydrochloride], the affinity, expressed as Ki, was 936 ± 32 nM.

`CN(CCc1ccccc1)CC1=C(c2cccc(O)c2)c2ccccc2CCC1` [Example 2d, 3-{6-[(methyl-phenethyl-amino)-methyl]-8,9-dihydro-7H-benzocyclohepten-5-yl}-phenol hydrochloride]: the affinity, expressed as Ki, was 54.3 ± 8.2 nM.

As for `CC(CN(C)C)=C(c1cccc(O)c1)c1cccc(O)c1` [Example 11a, 3-[3-dimethylamino-1-(3-hydroxyphenyl)-2-methyl-propenyl]-phenol hydrochloride], the Ki was determined as 34 ± 5.8 nM.

`CCCN(CCC)CC1=C(c2cccc(O)c2)c2ccccc2CCC1` [Example 2c, 3-(6-di-n-propylaminomethyl-8,9-dihydro-7H-benzocyclohepten-5-yl)-phenol h ydrochloride]: the Ki was 294 ± 106 nM.

Take `COc1ccc2c(c1)CCC(CN(C)C)=C2c1ccccc1` [Example 3, (6-methoxy-1-phenyl-3,4-dihydro-naphth-2-ylmethyl)-dimethylamine hydrochloride]: the affinity corresponds to a Ki of 456 ± 62 nM.

On to `COc1cccc2c1CCC(CN(C)C)=C2c1cccc(O)c1` [Example 9a, 3-(2-dimethylaminomethyl-5-methoxy-3,4-dihydronaphth-1-yl)-phenol hydrochloride], for which the Ki was determined as 23.9 ± 0.9 nM.

For the compound `COc1cccc2c1CCC(CN(C)C)=C2c1ccccc1` [Example 4, (5-methoxy-1-phenyl-3,4-dihydro-naphth-2-ylmethyl)-dimethylamine hydrochloride], the Ki worked out at 517 ± 45 nM.

`CN(C)CC1=C(c2cccc(O)c2)c2ccc(O)cc2CC1` [Example 6, 6-dimethylaminomethyl-5-(3-hydroxy-phenyl)-7,8-dihydro-naphth-2-ol hydrochloride] returned a Ki of 40.9 ± 6.7 nM.

Regarding `CN(C)CC1=C(c2cccc(O)c2)c2ccccc2CC1` [Example 1, 3-(2-dimethylaminomethyl-3,4-dihydro-naphth-1-yl)-phenol hydrochloride], the affinity, expressed as Ki, was 55.8 ± 4.6 nM.

For `CCN(CC)CC1=C(c2cccc(O)c2)c2ccccc2CCC1` [Example 2b, 3-(6-diethylaminomethyl-8,9-dihydro-7H-benzocyclohepten-5-yl)-phenol hydrochloride], the affinity, expressed as Ki, was 728 ± 146 nM.

Turning to `CN(C)CC1=C(c2cccc(O)c2)c2cc(-c3ccccc3)ccc2CC1` [Example 9b, 3-(2-dimethylaminomethyl-7-phenyl-3,4-dihydronaphth-1-yl)-phenol hydrochloride], the Ki is 39.3 ± 2.2 nM.

Take `CN(C)CC1=C(c2cccc(O)c2)c2ccc3ccccc3c2CC1` [Example 2j, 3-(2-dimethylaminomethyl-3,4-dihydro-phenanthren-1-yl)-phendlydrochloride]: the Ki is 80.8 ± 29.7 nM.

As for `CN(CC1=C(c2cccc(O)c2)c2ccccc2CCC1)CC1CC1` [Example 2g, 3-{6-[(cyclopropylmethyl-methyl-amino)-methyl]-8,9-dihydro-7H-benzocyclohepten-5-yl}-phenol hydrochloride], the Ki stood at 182 ± 12 nM.

In turn, `C/C(CN(C)C)=C(\c1ccc(-c2ccccc2)cc1)c1cccc(O)c1` [Example 11b, Z-3-(1-biphenyl-4-yl-3-dimethylamino-2-methyl-propenyl)-phenol hydrochloride] had a Ki of 23.7 ± 1.7 nM.

The compound `CN(C)CC1=C(c2cccc(O)c2)c2ccccc2CCC1` [Example 2a, 3-(6-dimethylaminomethyl-8,9-dihydro-7H-benzo-cyclohepten-5-yl)-phenol hydrochloride] yielded a Ki of 17.2 ± 4.3 nM.

With `CN(CCc1ccccn1)CC1=C(c2cccc(O)c2)c2ccccc2CCC1` [Example 2h, 3-(6-{[methyl-(2-pyridin-2-yl-ethyl)-amino]-methyl)-8,9-dihydro-7H-benzocyclohepten-5-yl)-phenol dihydrochloride], affinity was put at a Ki of 223 ± 86 nM.

`CN(C)CC1=C(c2cccc(O)c2)c2ccccc2CCCC1` [Example 2f, 3-(6-dimethylaminomethyl-7,8,9,10-tetrahydrobenzocycloocten-5-yl)-phenol h ydrochloride]: the Ki is 46.3 ± 10.1 nM.

`CCCCc1ccc2c(c1)C(c1cccc(O)c1)=C(CN(C)C)CC2` [Example 9c, 3-(7-n-butyl-2-dimethylaminomethyl-3,4-dihydronaphth-1-yl)-phenol hydrochloride] showed a Ki of 42.2 ± 16 nM.

A further assay concerns μ-receptors.
Assay: not given
Particulars: background statement; cited from earlier work.
With `CN1CC[C@]23c4c5ccc(O)c4O[C@H]2[C@@H](O)C=C[C@H]3[C@H]1C5` [morphine], the “selective binding to μ-receptors” value is given as “selectively binds to what are termed μ-receptors”.
